Measured values as given in the NIST ThermoML archive (doi:10.1021/acs.jced.6b00210).

Assay: xn = mol fraction of the nth substance listed
Conditions: 100 kPa, Liquid; for viscosity: Concentric cylinders viscometry; for mass density: Vibrating tube method

Nc1ccccc1 [aniline] + CCCC(C)O
Conditions	mass density [kg/m3]	viscosity [mPa·s]
293.15 K, x1 = 0.0811	824.5	3.55
293.15 K, x1 = 0.1599	839.5	3.23
293.15 K, x1 = 0.2399	855	3
293.15 K, x1 = 0.35	877	2.8
293.15 K, x1 = 0.44	895.5	2.71
293.15 K, x1 = 0.56	920.8	2.67
293.15 K, x1 = 0.65	940.4	2.72
293.15 K, x1 = 0.74	960.5	2.86
293.15 K, x1 = 0.8499	985.8	3.26
293.15 K, x1 = 0.9363	1006.3	3.79
293.15 K, x1 = 1	1021.7	4.37
298.15 K, x1 = 0.0811	820.3	3.03
298.15 K, x1 = 0.1599	835.3	2.74
298.15 K, x1 = 0.2399	850.8	2.53
298.15 K, x1 = 0.35	872.7	2.35
298.15 K, x1 = 0.44	891.1	2.28
298.15 K, x1 = 0.56	916.4	2.28
298.15 K, x1 = 0.65	935.9	2.34
298.15 K, x1 = 0.74	956	2.49
298.15 K, x1 = 0.8499	981.4	2.87
298.15 K, x1 = 0.9363	1001.9	3.31
298.15 K, x1 = 1	1017.4	3.8
303.15 K, x1 = 0.0811	816.1	2.61
303.15 K, x1 = 0.1599	831	2.34
303.15 K, x1 = 0.2399	846.5	2.12
303.15 K, x1 = 0.35	868.3	1.93
303.15 K, x1 = 0.44	886.7	1.86
303.15 K, x1 = 0.56	912	1.83
303.15 K, x1 = 0.65	931.6	1.87
303.15 K, x1 = 0.74	951.7	2.01
303.15 K, x1 = 0.8499	977	2.36
303.15 K, x1 = 0.9363	997.6	2.74
303.15 K, x1 = 1	1013.2	3.13
308.15 K, x1 = 0.0811	811.8	2.22
308.15 K, x1 = 0.1599	826.7	1.98
308.15 K, x1 = 0.2399	842.1	1.8
308.15 K, x1 = 0.35	863.9	1.65
308.15 K, x1 = 0.44	882.3	1.58
308.15 K, x1 = 0.56	907.6	1.562
308.15 K, x1 = 0.65	927.1	1.64
308.15 K, x1 = 0.74	947.2	1.78
308.15 K, x1 = 0.8499	972.7	2.09
308.15 K, x1 = 0.9363	993.3	2.44
308.15 K, x1 = 1	1009	2.75
313.15 K, x1 = 0.0811	807.5	1.84
313.15 K, x1 = 0.1599	822.3	1.64
313.15 K, x1 = 0.2399	837.6	1.5
313.15 K, x1 = 0.35	859.4	1.39
313.15 K, x1 = 0.44	877.8	1.359
313.15 K, x1 = 0.56	903	1.38
313.15 K, x1 = 0.65	922.6	1.46
313.15 K, x1 = 0.74	942.8	1.61
313.15 K, x1 = 0.8499	968.2	1.89
313.15 K, x1 = 0.9363	989	2.18
313.15 K, x1 = 1	1004.7	2.43
318.15 K, x1 = 0.0811	803.1	1.48
318.15 K, x1 = 0.1599	817.9	1.34
318.15 K, x1 = 0.2399	833.2	1.257
318.15 K, x1 = 0.35	854.9	1.18
318.15 K, x1 = 0.44	873.3	1.16
318.15 K, x1 = 0.56	898.6	1.21
318.15 K, x1 = 0.65	918.1	1.29
318.15 K, x1 = 0.74	938.3	1.44
318.15 K, x1 = 0.8499	963.8	1.7
318.15 K, x1 = 0.9363	984.6	1.93
318.15 K, x1 = 1	1000.4	2.14
323.15 K, x1 = 0.0811	798.7	1.19
323.15 K, x1 = 0.1599	813.3	1.11
323.15 K, x1 = 0.2399	828.6	1.06
323.15 K, x1 = 0.35	850.2	1.03
323.15 K, x1 = 0.44	868.5	1.03
323.15 K, x1 = 0.56	893.7	1.08
323.15 K, x1 = 0.65	913.3	1.17
323.15 K, x1 = 0.74	933.4	1.31
323.15 K, x1 = 0.8499	958.9	1.54
323.15 K, x1 = 0.9363	979.7	1.77
323.15 K, x1 = 1	995.5	1.96
